Experimental data taken from patent US12685779B2, “Complex” (UNITED IMMUNITY, CO., LTD., priority 2023, dated 2026).

How the values were obtained:
[1] = Blood concentration changes in mouse allogeneic tumor transplantation model; type: in vivo, mice (C57BL/6JJmsSlc, female); conditions: 84.5 μg via tail vein injection, MC38-bearing mice, serum 1 min to 6 hours
Experimental: (§1) A mouse allogeneic tumor transplantation model was prepared by intradermally administering 10^6 cells of the mouse colon cancer cell line MC38 into the dorsal skin of mice (C57BL/6JJmsSlc, female). Mice on day 7 after cell administration were used. 84.5 μg of CHP:Telratolimod prepared in Example 2 or Telratolimod dissolved in a solubilizing solvent (17.1% polyethylene glycol 300, 4.3% Tween 80, and 8.6% polyoxyethylene hydrogenated castor oil) was administered via tail vein injection, and changes in the concentration of Telratolimod in the blood were measured. Blood was collected from 5 mice per group. After each test drug was administered via tail vein injection, 80 μL of isopropyl alcohol was added to 20 μL of serum collected after 1 minute, 30 minutes, 1 hour, 2 hours, and 6 hours, and bead crushing was performed for 1 minute using a 5 mm diameter stainless steel ball. Further, 400 μL of an 80% isopropyl alcohol and 20% acetonitrile solution was added and mixed, followed by sonication for 3 minutes, and centrifugation at 12000 g for 5 minutes to collect the supernatant. The collected supernatant was analyzed by LS-MS/MS to measure the Telratolimod concentration. […]

[2] = test system: human peripheral blood-derived M2-like macrophages (phagocytosis of HeLa cells); assay: Cancer cell phagocytosis test of human peripheral blood-derived M2-like macrophages; type: cell-based; conditions: 10 μM in terms of Telratolimod, 1 day, flow cytometry
Experimental: HeLa cells were labeled with fluorescent label 1 (CellTracker Green CMTPX Dye, ThermoFisher) for 30 minutes, then washed twice with PBS(−), and cultured overnight in medium (RPMI supplemented with 10% fetal bovine serum) containing 2.5 μM doxorubicin.
Telratolimod or CHP:Telratolimod adjusted to a final concentration of 10 μM in terms of Telratolimod was added to the basal medium, and the M2-like macrophages prepared in Test Example 11 were incubated for 1 day. After labeling with fluorescent labeling agent 2 (CellTracker Red CMTPX Dye, ThermoFisher) for 30 minutes, the cells were washed twice with PBS(−). The HeLa cells were added at a half ratio to the M2-like macrophages and co-cultured overnight. The cells were then harvested, and the number of cells co-positive for fluorescent labels 1 and 2 was determined by flow cytometry. The control was supplemented with only medium.

reticulocytes = assay: Blood test in mouse allogeneic tumor transplantation model; type: in vivo; conditions: 84.5 μg i.v. on days 7, 9, 11; blood 1 day after final administration
Experimental: 10^6 cells of the mouse colorectal cancer cell line MC38 were administered intradermally into the dorsal skin of mice (C57BL/6JJmsSlc, female). After 7 days, 9 days, and 11 days, the Telratolimod solution prepared in Test Example 4 and the CHP:Telratolimod solution prepared in Example 2 were each administered (amount of Telratolimod: 84.5 μg) via tail vein injection to 5 mice per group. One day after the final administration, blood was collected, and changes in red blood cell and reticulocyte counts were measured. Significance tests were performed using one-way ANOVA (*P<0.05, **P<0.01, ***P<0.001, ****P<0.0001).

[3] = test system: macrophages infiltrating into the tumors (MC38); assay: Evaluation of TAM polarization in mouse allogeneic tumor transplantation model; type: in vivo, mice; conditions: MC38, 84.5 μg i.v. on days 7, 9, 11; tumors 1 day after final administration; flow cytometry
Experimental: An MC38 mouse allogeneic tumor transplantation model was prepared in the same manner as in Test Example 6, and on days 7, 9, and 11 after cell transplantation, the CHP:Telratolimod solution prepared in Example 2 and the Telratolimod solution prepared in Test Example 4 were each administered via tail vein injection to 5 mice per group (amount of Telratolimod: 84.5 μg). One day after the final administration, the tumors were excised, and macrophages infiltrating into the tumors were measured by flow cytometry. Significance tests were performed using one-way ANOVA (*P<0.05, **P<0.01, ***P<0.001, ****P<0.0001).

[4] = test system: mouse colon cancer cell line MC38; assay: Antitumor evaluation in mouse allogeneic tumor transplantation model (1); type: in vivo, mice (C57BL/6JJmsSlc, female); conditions: MC38, 84.5 μg Telratolimod i.v. on days 7, 9, 11, 14, 16, 18; day 19
Experimental: as §1, with “Further, 400 μL of an 80% isopropyl alcohol and 20% acetonitrile solution was added and mixed, followed by sonication for 3 minutes, and centrifugation at 12000 g for 5 minutes to collect the supernatant.” left out
An MC38 mouse allogeneic tumor transplantation model was prepared in the same manner as in Test Example 4. […] Tumor sizes were measured on days 7, 9, 11, 14, 16, 18, and 19. The tumor volume was calculated by (long axis×short axis×short axis)/2. […]

cytokines in serum = assay: Evaluation of cytokine release in mouse allogeneic tumor transplantation model; type: in vivo, mice (C57BL/6JJmsSlc, female); conditions: 84.5 μg i.v., blood after 2 hours, MC38-bearing mice
Experimental: The allograft model mice used were 10 days after 10^6 cells of the mouse colorectal cancer cell line MC38 were administered intradermally into the dorsal skin of mice (C57BL/6JJmsSlc, female). The Telratolimod solution prepared in Test Example 4 and the CHP:Telratolimod solution prepared in Example 2 were each administered (amount of Telratolimod: 84.5 μg) via tail vein injection to 5 mice per group, and blood was collected after 2 hours. The serum was obtained by centrifugation, and changes in the amount of cytokines were measured using LEGENDplex Mouse Inflammation Panel (BioLegend). Significance tests were performed using one-way ANOVA (*P<0.05, **P<0.01, ***P<0.001, ****P<0.0001).

[5] = test system: human peripheral blood-derived TAMs (phagocytosis of HeLa cells); assay: Cancer cell phagocytosis test of human peripheral blood-derived TAMs; type: cell-based; conditions: 10 μM in terms of Telratolimod, 2 days, doxorubicin-treated HeLa cells, flow cytometry
Experimental: HeLa cells were labeled with fluorescent label 1 (CellTracker Green CMTPX Dye, ThermoFisher) for 30 minutes, then washed twice with PBS(−), and cultured overnight in medium (RPMI supplemented with 10% fetal bovine serum) containing 1.25 μM doxorubicin.
TAMs were prepared in the same manner as in Test Example 1, and Telratolimod or CHP:Telratolimod adjusted to a final concentration of 10 μM in terms of Telratolimod was added to the basal medium, followed by incubation for 2 days. After labeling with fluorescent labeling agent 2 (CellTracker Red CMTPX Dye, ThermoFisher) for 30 minutes, the cells were washed twice with PBS(−). The doxorubicin-treated HeLa cells were added at a half ratio to the TAMs and co-cultured overnight. The cells were then harvested, and the number of cells co-positive for fluorescent labels 1 and 2 was determined by flow cytometry. The control was supplemented with only medium.

[6] = test system: mouse colorectal cancer cell line CT26; assay: Antitumor evaluation in mouse allogeneic tumor transplantation model (2); type: in vivo, mice (BALB/cCrSlc, female); conditions: Telratolimod 42 μg i.v. days 7, 9, 11, 14, 16, 18, anti-PD-1 antibody 100 μg i.p. days 7, 11, 14, 18
Experimental: A mouse allogeneic tumor transplantation model was prepared by intradermally administering 10^6 cells of the mouse colorectal cancer cell line CT26 into the dorsal skin of mice (BALB/cCrSlc, female). On days 7, 9, 11, 14, 16, and 18 after cell transplantation, the CHP:Telratolimod solution prepared in Example 2 and the Telratolimod solution prepared in Test Example 4 were each administered via tail vein injection, and on days 7, 11, 14, and 18 after cell transplantation, an anti-PD-1 antibody (RMP1-14, Bio X Cell) solution was administered intraperitoneally, to 5 mice per group (amount of Telratolimod: 42 μg, amount of anti-PD-1 antibody: 100 μg). One group received a combination of the CHP:Telratolimod solution and the anti-PD-1 antibody. Tumor sizes were measured on days 7, 9, 11, 14, 16, 18, and 21. The tumor volume was calculated by (long axis×short axis×short axis)/2. The negative control is an untreated group.

[7] = test system: human peripheral blood-derived TAMs; assay: Polarization test of human peripheral blood-derived TAMs (TNF-α ELISA); type: cell-based; conditions: 30 μM in terms of Telratolimod, 2 days incubation, culture supernatant
Experimental: (§2) Human peripheral blood-derived CD14-positive monocytes that had been cryopreserved in advance were awake and seeded in a 24-well tissue culture plate at 2×10^5 cells/well in 500 μL of basal medium (RPMI, 10% fetal bovine serum, 50 ng/mL M-CSF) and cultured for 3 days in a 37° C., 5% CO2 incubator, after which 500 μL of basal medium was further added, and the cells were cultured for 3 days. The medium was then replaced with 500 μL of TAM differentiation induction medium prepared by adding 10% fetal bovine serum, 50 ng/mL IL-4, 50 ng/mL IL-6, 50 ng/mL IL-10, 50 ng/mL IL-13, and 5% human AB type male donor defibrinated serum (Veritas) to a separately prepared culture supernatant of human cancer cells, and the cells were cultured for 2 days.
A Telratolimod solution or CHP:Telratolimod solution adjusted to a final concentration of 30 μM in terms of Telratolimod was added to the TAM prepared in Test Example 1, followed by incubation for 2 days, and TNF-α in the culture supernatant was measured by ELISA (BioLegend). The control was supplemented with only medium.

[8] = test system: human peripheral blood-derived M2-like macrophages; assay: Polarization test of human peripheral blood-derived M2-like macrophages (cytokine bead assay); type: cell-based; conditions: 3 μM, 1 day, culture supernatant
Experimental: as §2, with “M2-like macrophage” for “TAM”, “adding” for “adding 10% fetal bovine serum,”, “IL-10, and” for “IL-10,”, “IL-13” for “IL-13, and 5% human AB type male donor defibrinated serum (Veritas)”, “the basal medium,” for “a separately prepared culture supernatant of human cancer cells,”
A Telratolimod solution or CHP:Telratolimod solution adjusted to a final concentration of 3 μM in terms of Telratolimod was added to the M2-like macrophages prepared in Test Example 11, followed by incubation for 1 day, and TNF-α, IL-1β, IL-6, IL-12p40 (p40 subunit of IL-12), IL-23, and CXCL10 in the culture supernatant were measured using a flow cytometry bead assay kit (LEGENDplex™, BioLegend). The control was supplemented with only medium.

[9] = Examination of encapsulation of TLR7 and TLR8 agonists in CHP nanogel (Example 1); type: physicochemical; conditions: CHP in 6 M urea in PBS(−), stepwise dialysis against PBS(−)
Experimental: Nine TLR7 and TLR8 agonists (Telratolimod, Motolimod, Vesatolimod, Resiquimod, Imiquimod, CL075, CU-CPT17e, CU-CPT9a, and PF-4878691) were examined for whether they could be encapsulated in CHP nanogel. CHP was dissolved in a 6 M urea solution in PBS(−), and a compound solution was added thereto. Then, stepwise dialysis was performed against PBS(−).

For `CCCCCCCCCCCCCCCCCC(=O)NCCCCOn1c(CCCC)nc2c(N)nc3ccccc3c21` [Telratolimod], the “blood concentration of Telratolimod over time” value [1] was “rapidly decreased within 30 minutes after administration”, the Phagocytosis rate [2] was 9.7% and the “change in reticulocytes (bone marrow toxicity indicator)” value (reticulocytes) was “significant decrease”. For the same molecule, the “expression of ARG1 (M2-like macrophage marker)” value [3] was “tended to decrease”, the “expression of iNOS (M1-like macrophage marker)” value [3] was “significantly increased” and the “growth inhibition compared to the solvent control” value [4] was 49%. The IFN-β in serum (cytokines in serum) was “rapid increases”, the IL-6 in serum (cytokines in serum) was “rapid increases” and the MCP-1 in serum (cytokines in serum) was “rapid increases”. The Phagocytosis rate [5] was 5.5%, the “antitumor effect (tumor volume)” value [6] was “limited” and the TNF-α [7] was 700 pg/mL. It also gave a CXCL10 [8] of 140 ± 20 pg/mL, an IL-1β [8] of 2.3 ± 0.64 pg/mL and an IL-6 [8] of 3100 ± 380 pg/mL. It also gave an IL-12p40 [8] of 59 ± 22 pg/mL, an IL-23 [8] of 1.4 ± 0.35 pg/mL and a TNF-α [8] of 40 ± 7.3 pg/mL. For the same molecule, the “whether the compound could be encapsulated in CHP nanogel and formed into a solution” value [9] was “could be stably encapsulated in the CHP nanogel and formed into a solution”.
